In the test the target is Wee1-like protein kinase (Homo sapiens, UniProt P30291). Description: Enzymatic Activity of Wee1: In the present disclosure, Wee1 enzyme catalysis assay was carried out using the ATP-Glo Max kinase luminescence detection kit (Promega). Kinase activity was assessed by quantitative detection of the amount of ATP retained in the solution following the kinase reaction. The luminescent signal in the assay is proportional to the amount of ATP and inversely proportional to the kinase activity. The concentration of the compound in the assay ranged from 0.5 nM to 30 μM. The compound was dissolved in 10% DMSO, and 5 μL of the solution was added to 50 μL of the reaction, and the concentration of DMSO in the final reaction was 1%. The reaction was carried out at 30° C. for 50 minutes. 40 mM trishydroxymetyl aminomethane, pH 7.4, 10 mM MgCl2, 0.1 mg/ml BSA, 2 mM DTT, 0.1 mg/ml Poly (Lys, Tyr) substrate, 10 μM ATP and Wee1 were contained in the reaction mixture. After the enzymatic reaction, 50 μL of ATP-Glo Max kinase luminescence detection assay solution (Promega) was added and incubated for 15 minutes at room temperature. The luminescent signal was measured using a microplate reader. In some assays, a known Wee1 inhibitor was added as a positive control. Luminance data was analyzed using Graphpad software.
Sequence of Wee1-like protein kinase (P30291 whole entry): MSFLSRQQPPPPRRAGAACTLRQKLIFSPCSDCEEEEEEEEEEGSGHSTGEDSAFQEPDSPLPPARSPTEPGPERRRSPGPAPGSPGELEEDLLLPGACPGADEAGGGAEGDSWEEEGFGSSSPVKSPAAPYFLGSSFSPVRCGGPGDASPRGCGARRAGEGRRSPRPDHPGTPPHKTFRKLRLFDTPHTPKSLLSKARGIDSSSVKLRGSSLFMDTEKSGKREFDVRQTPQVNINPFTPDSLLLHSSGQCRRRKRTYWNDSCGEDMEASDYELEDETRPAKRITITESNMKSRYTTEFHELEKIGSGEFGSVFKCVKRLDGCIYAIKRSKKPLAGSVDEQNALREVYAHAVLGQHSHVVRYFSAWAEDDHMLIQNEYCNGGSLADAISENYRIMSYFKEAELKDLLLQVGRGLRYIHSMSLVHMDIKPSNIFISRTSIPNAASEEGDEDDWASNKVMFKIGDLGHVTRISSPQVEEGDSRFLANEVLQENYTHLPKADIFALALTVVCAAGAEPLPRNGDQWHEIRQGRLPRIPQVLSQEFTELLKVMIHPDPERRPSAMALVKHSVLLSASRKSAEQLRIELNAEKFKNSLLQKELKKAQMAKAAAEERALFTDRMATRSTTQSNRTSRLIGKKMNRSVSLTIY

The IC50 is the midpoint of a concentration-inhibition curve. As for `CC(C)N1Cc2ccc(Nc3ncc4c(=O)n5n(c4n3)-c3ccc4c(n3)N(CCC/C=C\C5)C(=O)CO4)cc2C2(CC2)C1`, the IC50 turned out to be 10.2 nM.

Take `CC(C)N1Cc2cc(Nc3ncc4c(=O)n5n(c4n3)-c3ccc4c(n3)N(CCC/C=C\C5)C(=O)CO4)ccc2C2(CC2)C1`: the IC50 turned out to be 10.4 nM.

Source of the values: ChEMBL document CHEMBL5728983, “Macrocyclic derivative of pyrazol[3,4-d]pyrimidin-3-one, pharmaceutical composition and use thereof” (2022).
